Measurements taken from US20230233576A1, “ECLITASERTIB FOR USE IN TREATING CONDITIONS INVOLVING SYSTEMIC HYPERINFLAMMATORY RESPONSE” (priority 2020, published 2023).

Tested on: adult participants hospitalized for severe COVID-19
Assay: Phase 1b severe COVID-19 study: ECG abnormalities (PCSA)
Format: in vivo, human
Details: 600 mg
Protocol: Physical examination including lung auscultation and assessment of consciousness, vital sign, electrocardiogram (ECG) parameters were measured per protocol.
For laboratory parameters (hematology, clinical chemistry, and urinalysis), vital signs, and ECG, incidences of potentially clinically significant abnormality (PCSA) values, actual values and change from baseline were summarized by treatment group.
For all laboratory, vital signs and ECG parameters, raw data and change from baseline were summarized in descriptive statistics by treatment group and scheduled time of measurement, with the exception of AST, ALT and alkaline phosphatase: instead of summarizing data in descriptive statistics, participants' profiles were presented through graphics by treatment group and with a color code to identify sites. The reason was that blood samples were processed by local laboratories with different normal ranges. For the rest of clinical laboratory these parameters it is reasonable to pool data as they are standard procedure and no significant differences in normal ranges were expected.

[1] = individual participant 70.0 kg, Discharge Before Day 15
[2] = individual participant 87.2 kg, Discharge Before Day 15
[3] = individual participant 120.0 kg, Day 15
[4] = individual participant 125.0 kg, Discharge Before Day 15

Question: How did the “HR (bpm) Delta (change from baseline)” value [1] turn out when `CN1C(=O)[C@@H](NC(=O)c2nnc(Cc3ccccc3)[nH]2)COc2cccnc21` [RIPKl Inhibitor] was run?
Answer: −25 bpm

Question: What about the “HR (bpm) Value” [1] of the same compound?
Answer: 76 bpm

Question: And the “PR % change from baseline” value [1]?
Answer: 0.0%

Question: And the “PR (ms) Value” [1]?
Answer: 120 ms

Question: What about the “QRS % change from baseline” value [1] of the same compound?
Answer: −38%

Question: What about the “QRS (ms) Value” [1] of the same compound?
Answer: 100 ms

Question: And the “QT (ms) Delta (change from baseline)” value [1]?
Answer: 100 ms

Question: And the “QT (ms) Value” [1]?
Answer: 460 ms

Question: And the “QTcB (ms) Delta (change from baseline)” value [1]?
Answer: 50 + ms

Question: And the “QTcB (ms) Value” [1]?
Answer: 517 ++ ms

Question: And the “QTcF (ms) Delta (change from baseline)” value [1]?
Answer: 75 ++ ms

Question: What about the “QTcF (ms) Value” [1] of the same compound?
Answer: 495 ++ ms

Question: And the “HR (bpm) Delta (change from baseline)” value [2]?
Answer: 18 bpm

Question: What about the “HR (bpm) Value” [2] of the same compound?
Answer: 86 bpm

Question: And the “PR % change from baseline” value [2]?
Answer: 0.0%

Question: What about the “PR (ms) Value” [2] of the same compound?
Answer: 150 ms

Question: And the “QRS % change from baseline” value [2]?
Answer: 25.0%

Question: And the “QRS (ms) Value” [2]?
Answer: 100 ms

Question: What about the “QT (ms) Delta (change from baseline)” value [2] of the same compound?
Answer: 30 ms

Question: What about the “QT (ms) Value” [2] of the same compound?
Answer: 370 ms

Question: And the “QTcB (ms) Delta (change from baseline)” value [2]?
Answer: 81 ++ ms

Question: What about the “QTcB (ms) Value” [2] of the same compound?
Answer: 443 ms

Question: What about the “QTcF (ms) Delta (change from baseline)” value [2] of the same compound?
Answer: 63 ++ ms

Question: And the “QTcF (ms) Value” [2]?
Answer: 417 ms

Question: What about the “HR (bpm) Delta (change from baseline)” value [3] of the same compound?
Answer: 0 bpm

Question: And the “HR (bpm) Value” [3]?
Answer: 69 bpm

Question: And the “PR % change from baseline” value [3]?
Answer: 31.9%

Question: And the “PR (ms) Value” [3]?
Answer: 124 ms

Question: What about the “QRS % change from baseline” value [3] of the same compound?
Answer: −28%

Question: What about the “QRS (ms) Value” [3] of the same compound?
Answer: 82 ms

Question: And the “QT (ms) Delta (change from baseline)” value [3]?
Answer: 4 ms

Question: What about the “QT (ms) Value” [3] of the same compound?
Answer: 482 ms

Question: And the “QTcB (ms) Delta (change from baseline)” value [3]?
Answer: 4 ms

Question: What about the “QTcB (ms) Value” [3] of the same compound?
Answer: 518 ++ ms

Question: What about the “HR (bpm) Delta (change from baseline)” value [4] of the same compound?
Answer: −6 bpm

Question: And the “HR (bpm) Value” [4]?
Answer: 77 bpm

Question: And the “PR % change from baseline” value [4]?
Answer: 0.0%

Question: What about the “PR (ms) Value” [4] of the same compound?
Answer: 160 ms

Question: And the “QRS % change from baseline” value [4]?
Answer: −4.8%

Question: And the “QRS (ms) Value” [4]?
Answer: 80 ms

Question: And the “QT (ms) Delta (change from baseline)” value [4]?
Answer: 118 ms

Question: What about the “QT (ms) Value” [4] of the same compound?
Answer: 466 ms

Question: And the “QTcB (ms) Delta (change from baseline)” value [4]?
Answer: 121 ++ ms

Question: And the “QTcB (ms) Value” [4]?
Answer: 530 ++ ms
